Test results: patent EP0307279A2, “Use of (5-amino-2-(4-methyl-1-piperidinyl)phenyl)-(4-chlorophenyl)methanone as an antiviral agent” (FOURNIER INNOVATION ET SYNERGIE, priority 1987, dated 1989)

Columns and labels:
Assay type in all cases: cell-based
virus HIV 1 [1] = assay: Protocol 3: treatment of human lymphocytes after HIV 1 adsorption (post-treatment), reverse transcriptase activity in culture supernatant
Description: (§1) Pour chacun des trois protocoles qui suivent, on a préparé une solution mère de (5-amino-2-(4-méthyl-1-pipéridinyl)phényl)-(4-chlorophényl)-méthanone à 100 mg/l dans de l'eau physiologique contenant 9 g/l de chlorure de sodium et acidifiée à pH=3 par de l'acide chlorhydrique. La solution mère est ensuite diluée dans un milieu RPMI 1640 jusqu'à la concentration désirée. La solution ainsi obtenue est stérilisée par filtration sur membrane "MILLIPORE" ayant un diamètre moyen de pores de 0,22 m.
(§2) A partir de cellules T lymphoblastoïdes (lignée CEM) infectées par un virus HIV et donc susceptibles de produire ledit virus HIV, on recueille ce dernier par des moyens appropriés à partir d'un surnageant de culture desdites cellules.
(§3) Les cellules utilisées sont des lymphocytes de sujets normaux HIV négatifs isolés à partir du sang périphérique par gradient de Ficoll puis stimulés pendant trois jours par de la phytohémagglutinine p (en abrégé pHAp) avant leur utilisation.
(§4) Les lymphocytes sont ensuite cultivés dans le milieu RPMI 1640 contenant 10 % de sérum de veau foetal, 10 % d'interleukine II, 2 g/ml de polybrène, 1 % de glutamine, 1 % d'antibiotiques et une dilution au 1/2500 de sérum anti-interféron humain.
(§5) La production du virus HIV par des cellules T humaines traitées ou non par le produit a été régulièrement suivie par mesure de l'activité transcriptase inverse, représentative de la réplication virale, et présente dans 1 ml de surnageant de culture. On concentre 100 fois 1 ml de surnageant par ultracentrifugation puis on détermine l'activité enzymatique de cet échantillon dans 50 l d'un mélange réactionnel contenant 50 mM de tampon tris (hydroxyméthylaminométhane) de pH=7,9, 20 mM de KCl, 5 mM de MgCl₂, 1 mM de 1,4-dithiothréitol, 0,05 unité de densité optique par ml d'acide polyadénylique (5′), 0,05 unité de densité optique par ml d'acide oligodéoxythymidylique 12-18, 5 Ci de ³HTTP et 0,1 % de Triton X 100. Après une heure d'incubation à 37°C, les produits acido-insolubles sont précipités par de l'acide trichloracétique à 20 %, filtrés sur "MILLIPORE" 0,45 m, puis la radioactivité contenue dans ces produits de réaction est mesurée à l'aide d'un compteur à scintillation Kontron.
(§6) Les figures 1 à 3 qui représentent l'activité transcriptase inverse (A exprimée en cpm/ml) en fonction du temps (t exprimé en nombre de jours), comprennent chacune quatre courbes : T représentant l'activité transcriptase inverse dans la culture témoin. C₁ représentant l'activité transcriptase inverse pour la culture traitée par une dose de 0,1 g/ml de produit. C₂ représentant l'activité transcriptase inverse pour la culture traitée par une dose de 0,05 g/ml de produit, et C₃ représentant l'activité transcriptase inverse pour la culture traitée par une dose de 0,01 g/ml de produit. […]

virus HIV 1 [2] = assay: Protocol 2: treatment of human lymphocytes during HIV 1 adsorption, reverse transcriptase activity in culture supernatant
Description: as §1, §2, §3, §4, §5, §6

virus HIV 1 [3] = assay: Protocol 1: pre-treatment of human lymphocytes before HIV 1 infection, reverse transcriptase activity in culture supernatant
Description: as §1, §2, §3
Les lymphocytes sont ensuite cultivés dans le milieu RPMI 1640 contenant 10 % de sérum de veau foetal, 10 % d'interleukine II, 2 g/ml de polybrène, 1 % de glutamine, 1 % d'antibiotiques et une dilution au 1/2500 de sérum anti-interféron humain. […]

## CC1CCN(c2ccc(N)cc2C(=O)c2ccc(Cl)cc2)CC1 [produit, (5-amino-2-(4-méthyl-1-pipéridinyl)phényl)-(4-chlorophényl)-méthanone]
Virus HIV 1 [1]; post-treatment for three passages after adsorption, 0,1 µg/ml (curve C1), figure 3
  inhibition de l'infection virale: très significative
Virus HIV 1 [1]; post-treatment, 0,01 µg/ml (curve C3)
  inhibition de l'infection virale: partielle
Virus HIV 1 [1]; post-treatment, 0,05 µg/ml (curve C2)
  inhibition de l'infection virale: partielle
Virus HIV 1 [1]; post-treatment, 0,1 g/ml, control peak / treated peak
  rapport des pics des courbes T et C₁ (activité transcriptase inverse): ~10
Virus HIV 1 [2]; during viral adsorption, 0,1 µg/ml (curve C1)
  inhibition du pouvoir infectieux du virus HIV 1: maximale
Virus HIV 1 [2]; during viral adsorption, 0,01 µg/ml (curve C3)
  inhibition du pouvoir infectieux du virus HIV 1: partielle
Virus HIV 1 [2]; during viral adsorption, 0,05 µg/ml (curve C2)
  inhibition du pouvoir infectieux du virus HIV 1: partielle
Virus HIV 1 [2]; product present during viral adsorption (1 h, 37°C), various concentrations (curves C1 to C3), figure 2
  inhibition du pouvoir infectieux du virus HIV 1 pour les cellules T humaines: inhibition très significative
Virus HIV 1 [3]; pre-treatment 18 h before infection, human lymphocytes, whatever the dose (0,1, 0,05, 0,01 µg/ml), figure 1
  inhibition du pouvoir infectieux du virus HIV 1 (activité transcriptase inverse): inhibition partielle
Virus HIV 1 [3]; pre-treatment, whatever the dose, versus untreated control culture
  retard dans l'apparition du pic de transcriptase inverse: retard important
